Results as given in ChEMBL document CHEMBL1138741, “Virulence regulation and quorum sensing in staphylococcal infections: competitive AgrC antagonists as quorum sensing inhibitors” (J Med Chem, 2004).
Where “and” joins values, the source holds several entries; their conditions need not be identical. Equal entries are not always repeated. Where a SMILES comes first, the peptide text is derived from it.

Columns and labels:
[1] = target: T1, Receptor-histidine kinase AgrC (Staphylococcus aureus, UniProt O07911); assay: Concentration required to inhibit quorum sensor of Staphylococcus aureus
T1 sequence (O07911 whole entry): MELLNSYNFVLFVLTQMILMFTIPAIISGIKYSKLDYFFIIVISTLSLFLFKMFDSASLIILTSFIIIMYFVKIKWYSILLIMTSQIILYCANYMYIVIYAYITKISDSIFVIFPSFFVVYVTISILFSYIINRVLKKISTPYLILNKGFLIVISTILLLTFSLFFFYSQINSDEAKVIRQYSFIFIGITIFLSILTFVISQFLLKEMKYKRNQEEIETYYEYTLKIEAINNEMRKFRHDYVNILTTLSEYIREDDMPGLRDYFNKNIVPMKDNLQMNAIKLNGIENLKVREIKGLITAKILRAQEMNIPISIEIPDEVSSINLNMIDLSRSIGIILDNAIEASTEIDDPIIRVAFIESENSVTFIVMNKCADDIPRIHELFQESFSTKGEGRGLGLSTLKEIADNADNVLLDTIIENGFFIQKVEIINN

[2] = target: T1, Receptor-histidine kinase AgrC; assay: Effective concentration to antagonise accessory gene regulator C3 of Staphylococcus aureus; format: functional
[3] = target: T1, Receptor-histidine kinase AgrC; assay: Concentration required to antagonise accessory gene regulator C4 of Staphylococcus aureus; format: functional
[4] = target: T1, Receptor-histidine kinase AgrC; assay: Antagonistic concentration for accessory gene regulator C1 of Staphylococcus aureus; format: functional
[5] = target: T1, Receptor-histidine kinase AgrC; assay: Concentration required to antagonise accessory gene regulator C2 of Staphylococcus aureus; format: functional
[6] = target: T1, Receptor-histidine kinase AgrC; assay: Effective concentration to antagonise accessory gene regulator C2 of Staphylococcus aureus; format: functional
[7] = target: T1, Receptor-histidine kinase AgrC; assay: Concentration required to antagonise accessory gene regulator C3 of Staphylococcus aureus; format: functional
[8] = target: T1, Receptor-histidine kinase AgrC; assay: Effective concentration to antagonise accessory gene regulator C4 of Staphylococcus aureus; format: functional
[9] = target: T1, Receptor-histidine kinase AgrC; assay: Effective concentration to antagonise accessory gene regulator C1 of Staphylococcus aureus; range = 9-11 uM; format: functional

Row | Molecule | IC50 [1] | IC50 [3] [nM] | IC50 [4] [nM] | IC50 [5] [nM] | IC50 [7] [nM] | further results
1 | CC[C@H](C)[C@@H]1NC(=O)[C@H](Cc2ccccc2)NC(=O)[C@H](C)NC(=O)[C@@H](NC(=O)[C@@H](NC(=O)[C@H](CO)NC(=O)[C@@H](N)Cc2ccc(O)cc2)[C@@H](C)O)CSC(=O)[C@@H](CCSC)NC1=O | 256 nM and 30 nM |  |  |  |  | 
2 | H-INCDFLL-OH |  | 150 | 70 | 6 |  | EC50 [2]: 26 nM
3 | CC(C)C[C@@H]1NC(=O)[C@H](CO)NC(=O)[C@H](CO)NC(=O)[C@@H](NC(=O)[C@H](C)NC(=O)[C@H](CC(N)=O)NC(=O)[C@@H](NC(=O)CN)C(C)C)CSC(=O)[C@H](Cc2ccccc2)NC1=O [GVNACSSLF] (HELM PEPTIDE1{G.V.N.A.C.S.S.L.F}$PEPTIDE1,PEPTIDE1,5:R3-9:R2$$$V2.0) |  | 86 |  |  | 1 | EC50 [6]: 3.6 nM
4 | CC[C@H](C)[C@@H]1NC(=O)[C@H](Cc2ccccc2)NC(=O)[C@H](CC(=O)O)NC(=O)[C@@H](NC(C)=O)CSC(=O)[C@H](CCSC)NC1=O (HELM PEPTIDE1{[ac].C.D.F.I.M}$PEPTIDE1,PEPTIDE1,2:R3-6:R2$$$V2.0) | 8000 nM |  |  |  |  | 
5 | CC[C@H](C)[C@@H]1NC(=O)[C@H](Cc2ccccc2)NC(=O)[C@H](Cc2ccc(O)cc2)NC(=O)[C@@H](NC(=O)[C@@H](NC(=O)[C@H](CO)NC(=O)[C@@H](N)Cc2ccc(O)cc2)[C@@H](C)O)CSC(=O)[C@H](CCSC)NC1=O [YSTCYFIM] (HELM PEPTIDE1{Y.S.T.C.Y.F.I.M}$PEPTIDE1,PEPTIDE1,4:R3-8:R2$$$V2.0) |  |  | 7000 | 4 | 1 | EC50 [8]: 13 nM
6 | CC[C@H](C)[C@@H]1NC(=O)[C@H](Cc2ccccc2)NC(=O)[C@H](CC(=O)O)NC(=O)[C@@H](NC(=O)[C@@H](NC(=O)[C@H](CO)NC(=O)[C@@H](N)Cc2ccc(O)cc2)[C@@H](C)O)CSC(=O)[C@H](CCSC)NC1=O (HELM PEPTIDE1{Y.S.T.C.D.F.I.M}$PEPTIDE1,PEPTIDE1,4:R3-8:R2$$$V2.0) |  |  |  |  |  | EC50 [9]: 11000 nM
